Results on 3 molecules are retold here after PMC6706930, “A novel oral micellar fenretinide formulation with enhanced bioavailability and antitumour activity against multiple tumours from cancer stem cells” (Journal of Experimental & Clinical Cancer Research : CR, 2019).

Molecules are shown by their SMILES. Where “and” joins values, the source holds several entries; their conditions need not be identical. Identical values can stand only once. Like-named read-outs stand apart in the source and are kept apart here.

This data set is described as follows: Tumour pharmacokinetics: fenretinide and metabolite levels in plasma and tumours of xenografted mice. Format: in vivo. Conditions: for concentration at 3 h: female, mouse, oral. The method, then:
The determination of fenretinide in plasma of mice and the others biological samples was determined according to a method specifically developed and validated for the quantification of fenretinide (4-HPR) based on liquid chromatography-tandem mass spectrometry (LC–MS/MS) (manuscript in preparation). The procedure of sample preparation and quantification can be summarized as follows. 30 μL aliquot of plasma was added with 3 ng of deuterated internal standard (^2H4 4-HPR), deproteinized by mean of 90 μL of acetonitrile and centrifuged 5 min at 13200 rpm at room temperature. The supernatant was recovered and 5 μL injected into a HPLC system (Series 200, Perkin Elmer, MA, USA). Chromatographic separation was achieved on a Gemini-C18 column (50 mm × 2.0 mm, 5 μm particle size; Phenomenex Inc., Torrance, CA, USA) at 32 °C protected with a Security Guard™ ULTRA cartridges C18. The detection obtained by Mass spectrometric detection was carried out on a triple quadrupole API 4000 mass spectrometer (Sciex, MA, USA) equipped with atmospheric pressure chemical ionization source (APCI) operating in positive ion mode monitoring the transitions 392.3 > 283.2 m/z for 4-HPR and 396.3 > 283.2 m/z for the deuterated internal standard. To assay study samples, a calibration curve of six points (range: 1.0–500.00 ng/mL) was prepared in control mouse plasma assessing the precision and the accuracy of the run analyzing at the same time a set of freshly prepared quality controls samples. The Limit Of Quantification of the method was 1 ng/mL in plasma and urine and 50 ng/g in faeces.
Cell suspensions of lung and colon cancer and melanoma CSC lines were mixed 1:1 with Growth Factor-Reduced Matrigel (Beckton Dickinsons) and injected subcutaneously in both flanks of 5-week-old female NOD-SCID (non-obese diabetic/severe combined immunodeficiency) mice in the case of colon and melanoma or NSG (non-obese diabetic/severe combined immunodeficiency gamma chain deficient) mice in the case of lung (Charles River, Wilmington, MA, USA). For drug treatment, when tumours reached a mean diameter of 0.5 cm, groups of 6 mice were randomized into 3 groups and treated with vehicle, with Bio-nFeR (50,100 or 150 mg/kg as described) freshly dissolved in sterile water or with the standard formulation NCI-FeR that reproduce NCI capsule (50 or 100 mg/Kg). Treatments were administered by oral gavage 5 days on and 2 days off for 3 weeks. Tumours were measured twice a week using a caliper, and mice were monitored for signs of drug-induced toxicity and weighed regularly. At the end of treatments, in a study paralleling the assessment of antitumour activity, tumours and blood samples were collected for pharmacokinetic and molecular studies 3 hours after the last drug administration. Collection of blood, plasma separation and storing were as previously described. Immediately after blood collection mice were sacrificed by cervical dislocation, tumours removed rapidly frozen in liquid nitrogen and stored in small pieces at − 80 °C for subsequent fenretinide determination, protein and lipid analyses. All procedures were performed with the approval of the Ethics Committee for Animal Experimentation.

[1] abbreviates: colon cancer xenograft mice, Bio-nFeR 150 mg/kg, Suppl. Table 5.
The mark [2] stands for this setting: colon cancer xenograft, Bio-nFeR 150 mg/kg, Suppl. Table 5.
[3] abbreviates: lung cancer xenograft mice, Bio-nFeR 100 mg/kg, Suppl. Table 5.
[4] abbreviates: lung cancer xenograft, Bio-nFeR 100 mg/kg, Suppl. Table 5.
The mark [5] stands for this setting: melanoma xenograft mice, Bio-nFeR 100 mg/kg, Suppl. Table 5.
[6] abbreviates: melanoma xenograft, Bio-nFeR 100 mg/kg, Suppl. Table 5.

Turning to `CC1=C(/C=C/C(C)=C/C=C/C(C)=C/C(=O)Nc2ccc(O)cc2)C(C)(C)CCC1` [4-HPR, 4-hydroxy (phenyl)retinamide, reference compound], the concentration at 3 h was 1880 ng/g to 2230 ng/g and 4.8 µM to 5.7 µM (NOD-SCID (colon, melanoma), NSG (lung), tumour, both drug doses analyzed (Bio-nFeR 100 and 150 mg/kg), three xenograft models, read-out: intra-tumour concentration); 4.8 µM (NOD-SCID, colon cancer xenograft, Bio-nFeR 150 mg/kg, tumour density assumed =1, read-out: Mean 4-HPR concentration: Tumor); 5.4 µM (NOD-SCID, melanoma xenograft, Bio-nFeR 100 mg/kg, tumour density assumed =1, read-out: Mean 4-HPR concentration: Tumor); 4990 ng/mL (NOD-SCID, plasma, colon cancer xenograft mice, Bio-nFeR 150 mg/kg, Suppl. Table 5, read-out: Mean concentration (±sd), Plasma); 12.1 µM (NOD-SCID, plasma, colon cancer xenograft mice, Bio-nFeR 150 mg/kg, read-out: Mean 4-HPR concentration: Plasma); 1710 ng/mL (NOD-SCID, plasma, melanoma xenograft mice, Bio-nFeR 100 mg/kg, Suppl. Table 5, read-out: Mean concentration (±sd), Plasma). For the same molecule, the concentration at 3 h (NOD-SCID, plasma, melanoma xenograft mice, Bio-nFeR 100 mg/kg, read-out: Mean 4-HPR concentration: Plasma) turned out to be 4.7 µM; the concentration at 3 h (NOD-SCID, tumour, colon cancer xenograft, Bio-nFeR 150 mg/kg, Suppl. Table 5, read-out: Mean concentration (±sd), Tumor) amounted to 1880 ng/mL; the concentration at 3 h (NOD-SCID, tumour, colon cancer xenograft, Bio-nFeR 150 mg/kg, read-out: Mean 4-HPR concentration ± (sd): Tumor) worked out at 1880 ng/g; the concentration at 3 h (NOD-SCID, tumour, melanoma xenograft, Bio-nFeR 100 mg/kg, Suppl. Table 5, read-out: Mean concentration (±sd), Tumor) worked out at 2130 ng/mL; the concentration at 3 h (NOD-SCID, tumour, melanoma xenograft, Bio-nFeR 100 mg/kg, read-out: Mean 4-HPR concentration ± (sd): Tumor) worked out at 2130 ng/g; the concentration at 3 h (NSG, lung cancer xenograft, Bio-nFeR 100 mg/kg, tumour density assumed =1, read-out: Mean 4-HPR concentration: Tumor) was found to be 5.7 µM. For the same molecule, the concentration at 3 h by setting is: (NSG, plasma, lung cancer xenograft mice, Bio-nFeR 100 mg/kg, Suppl. Table 5, read-out: Mean concentration (±sd), Plasma) 3450 ng/mL; (NSG, plasma, lung cancer xenograft mice, Bio-nFeR 100 mg/kg, read-out: Mean 4-HPR concentration: Plasma) 8.8 µM; (NSG, tumour, lung cancer xenograft, Bio-nFeR 100 mg/kg, Suppl. Table 5, read-out: Mean concentration (±sd), Tumor) 2230 ng/mL; (NSG, tumour, lung cancer xenograft, Bio-nFeR 100 mg/kg, read-out: Mean 4-HPR concentration ± (sd): Tumor) 2230 ng/g.

As for `CC1=C(/C=C/C(C)=C/C=C/C(C)=C/C(=O)Nc2ccc(O)cc2)C(C)(C)CCC1=O` [4-oxo-4-HPR], the “Mean concentration (±sd), Plasma” value is 3519 (1319) ng/ml under setting [1], 2142 (374) ng/ml under setting [3] and 1226 (220) ng/ml under setting [5]. Besides, the “Mean concentration (±sd), Tumor” value by setting is: under setting [2], 2514 (189) ng/ml; under setting [4], 2028 (150) ng/ml; under setting [6], 2323(134) ng/ml.

On to `COc1ccc(NC(=O)\C=C(C)/C=C/C=C(C)\C=C\C2=C(C)CCCC2(C)C)cc1` [MPR], for which the “Mean concentration (±sd), Plasma” value is, setting by setting: under setting [1], 790 (261) ng/ml; under setting [3], 394 (68) ng/ml; under setting [5], 190 (32) ng/ml. Moreover, the “Mean concentration (±sd), Tumor” value reads like this: under setting [2], 1090 (503) ng/ml; under setting [4], 2282 (598) ng/ml; under setting [6], 707 (476) ng/ml.
